These results are taken from patent US7264314B2, “Adrenocorticotropic hormone analogs and related methods” (priority 2004, dated 2007).

Experiment [1] relates to serum corticosterone in dexamethasone-suppressed mice. Put plainly: in vivo Serum Corticosteroid Induction Assay. The arrangement: species or system FVB/N mice. The following applies: for Percent reduction in serum corticosteroid: compared to unmodified mACTH(1–24), 1 μg s.c., blood one hour after administration. As to the method: An in vivo Serum Corticosteroid Induction Assay measures the level of corticosteroid or corticosterone in the blood stream of a subject. More specifically, the in vivo Serum Corticosteroid Induction Assay can include the following steps: first, an agent to suppress endogenous ACTH production was administered to a mouse subject, such as an intraperitoneal injection of dexamethasone; second, after waiting a suitable period of time for suppression of endogenous ACTH production (e.g., 1.5–2.0 hours), a test compound can be administered to the mouse by a suitable method, such as intraperitoneal or subcutaneous injection; and third, after waiting a suitable period of time (e.g., 1 hour) for action of the injected test compound, a blood sample can be taken from the subject and the level of serum corticosterone can be determined by a suitable method, such as a competitive radioimmunoassay using ^125I RIA kit (ICN, Costa Mesa, Calif.). Example 1 describes a murine in vivo Serum Corticosteroid Induction Assay in detail.
The corticosteroid or corticosterone secretion induced in vivo by an ACTH analog compound was compared to the level of corticosteroid secretion produced by an unmodified ACTH compound by measuring blood serum corticosteroid after administering either the ACTH or ACTH analog as test compounds. […] ACTH analog compositions with decreased function were identified by measuring corticosterone levels using standard radioimmunoassay (RIA) analysis on blood samples collected one hour after administering the mACTH(1–24) or ACTH analog compound to dexamethasone-suppressed mice. In FIG. 1, the potency of various ACTH analog peptides is expressed as per cent induction of corticosterone, with mouse ACTH being 100%. […] The percent of corticosterone induction 12 of ACTH analog Compounds in Samples 2–10 are shown as a percentage of the concentration of serum corticosterone 20 measured for unmodified mACTH(1–24) in the in vivo Serum Corticosteroid Adrenal Induction Assay. The structural modifications and measured percentage reduction in serum measured for Samples 2–10 in FIG. 1 are shown in Table 3 below.
The in vivo Serum Corticosteroid Induction Assay was performed according the following method. First, two to three month-old male FVB/N mice from our colony, five per group, were injected intraperitoneally with dexamethasone (0.4 mg/0.1 ml PBS per mouse; Sigma, St. Louis, Mo.) to suppress their endogenous ACTH production. See Hajos, G T et al., “Studies of the potency of polypeptides with ACTH action by a new method based on continuous measurement of plasma corticosterone,” Steroids Lipids Res 3:225–228 (1972), Costa, J L, et al., “Mutational analysis of evolutionarily conserved ACTH residues,” Gen Comp Endocrinol, 136:12–16 (2004), and Karpac, J, et al., “Development, Maintenance, and Function of the Adrenal Gland in Early Postnatal Pro-opiomelanocortin Null Mutant Mice,” Endocrinology (2005), published online ahead of print Feb. 24, 2005, all of which are incorporated herein by reference.
Second, ninety to one hundred twenty minutes later, the dexamethasone-suppressed mice were injected subcutaneously between the shoulder blades with either unmodified mACTH(1–24) or one of several ACTH analog peptide compounds (1 μg/0.1 mL PBS/0.5% BSA), or with vehicle alone (control) (0.1 mL PBS/0.5% BSA). The following ACTH analog peptide compounds were administered to separate mice: 1: murine ACTH1–24; 2: V26F,E30K; 3: P19W,K21E,Y23R; 4: E30K,P36R; 5: ALA19–24; 6: V26F,P36R; 7: P19W, K21E; 8: P19W,K21A,delY23; 9: P19W,K21A; 10: KRRP16-19RMW (AT814) (SEQ ID NO:20).
Third, one hour later, blood was collected within less than 1 minute from a small incision in the tail, and serum was flash-frozen and stored at −80° C. until assayed. Serum corticosterone was determined by competitive radioimmunoassay (^125I RIA kit; ICN, Costa Mesa, Calif.) according to the manufacturer's recommendations. One microliter of serum was used per assay sample. […]

The test system of experiment [2] is corticosterone production by explanted mouse adrenal halves. Put plainly: in vitro Serum-free Adrenal Inhibition Assay. The class given is cell-based. Conditions: in vivo by Example 1, in vitro by Example 4. On the procedure: A series of separate in vitro Serum-Free Adrenal Corticosteroid Inhibition Assay were performed to identify ACTH analogs that inhibit ACTH-induced adrenal hormone production in vitro. The concentration of corticosterone was measured according to the procedure of Example 4 in a serum-free culture medium containing explanted adrenal membrane and unmodified ACTH, AT814 ACTH analog (SEQ ID NO:20), or a combination of ACTH and AT814 at 100 ng/mL each. […] Corticosterone levels were taken at 2.0 hours after the adrenal membrane was placed in the serum free M199 medium, and each corticosterone level in Table 5 is an average of five samples.
The in vitro Serum-free Adrenal Inhibition Assay was performed according the following method. First, adrenals were removed from mice, dissected free of fat, and cut in half. See Costa, J L, et al., “Mutational analysis of evolutionarily conserved ACTH residues,” Gen Comp Endocrinol. 136:12–16 (2004); and Weber, M M, et al., “Postnatal overexpression of insulin-like growth factor II in transgenic mice is associated with adrenocortical hyperplasia and enhanced steroidogenesis,” Endocrinology 140:1537–1543 (1999), incorporated herein by reference.
Second, each adrenal half was placed into an individual well of a 4-well dish, one dish per mouse. Adrenal halves were incubated at 5% CO2, 37° C., in 0.5 ml serum-free medium (M199; Invitrogen) for 30 minutes to equilibrate.
Third, medium was removed and replaced by 0.5 ml M199 containing ACTH, AT814, or both, at 100 ng/ml each; controls had no peptides added.
Fourth, after 2 hours of incubation, the medium was removed, pooled for all four halves from each mouse, and assayed by corticosterone using standard RIA methods. corticosterone was determined by competitive radioimmunoassay (^125I RIA kit; ICN, Costa Mesa, Calif.) according to the manufacturer's recommendations. One microliter of serum was used per assay sample. Samples were run in duplicates.

In the case of “(E30K, P36R)mACTH (SYSMEHFRWGKPVGKKRRPVKVYPNVAENKSAEAFRLEF; Corticotropin; UniProt P01193 124-162, looked up, variant E30K P36R) [Sample 4]”, the “Percent reduction in serum corticosteroid” value (from here on “Percent reduction”) in experiment [1] was determined as 41.5%.

Turning to “(P19W, K21A)mACTH (SYSMEHFRWGKPVGKKRRWVAVYPNVAENESAEAFPLEF; Corticotropin; UniProt P01193 124-162, looked up, variant P19W K21A) [Sample 9]”, the “Percent reduction” value in experiment [1] was 83.4%.

As for “(V26F, P36R)mACTH (SYSMEHFRWGKPVGKKRRPVKVYPNFAENESAEAFRLEF; Corticotropin; UniProt P01193 124-162, looked up, variant V26F P36R) [Sample 6]”, the “Percent reduction” value in experiment [1] came out at 59.3%.

Turning to (PVKVYP19-24AAAAA)mACTH [Sample 5], the “Percent reduction” value in experiment [1] came out at 51%. Also, in experiment [1] (method of Example 1), the “in vivo activity in excess of the in vitro activity of unmodified mACTH (FIG. 5)” value was “about 50%”; the “in vivo activity, % corticosterone induction relative to mACTH(1–24) (FIG. 5)” value was “greater relative to both mACTH and to other ACTH analogs”. In experiment [2], the “in vitro activity compared with in vivo activity (FIG. 5)” value is given as “increased serum half life measured in vivo”.

Take “(P19W, K21E)mACTH (SYSMEHFRWGKPVGKKRRWVEVYPNVAENESAEAFPLEF; Corticotropin; UniProt P01193 124-162, looked up, variant P19W K21E) [Sample 7]”: the “Percent reduction” value in experiment [1] amounted to 61.1%.

Consider “(P19W, K21E, Y23R)mACTH (SYSMEHFRWGKPVGKKRRWVEVRPNVAENESAEAFPLEF; Corticotropin; UniProt P01193 124-162, looked up, variant P19W K21E Y23R) [Sample 3]”, for which, in experiment [1], the “Percent reduction” value was 36.5%.

Take “(V26F, E30K)mACTH (SYSMEHFRWGKPVGKKRRPVKVYPNFAENKSAEAFPLEF; Corticotropin; UniProt P01193 124-162, looked up, variant V26F E30K) [Sample 2]”: the “Percent reduction” value in experiment [1] was 18.3%.

As to “(P19W, K21A, delY23)mACTH (SYSMEHFRWGKPVGKKRRWVAVPNVAENESAEAFPLEF; Corticotropin; UniProt P01193 124-162, looked up, variant P19W K21A Y23*) [Sample 8]”, in experiment [1], the “Percent reduction” value is reported as 76.0%.
